Reference: ChEMBL document CHEMBL1828590 (J Med Chem, 2011)

How the values were obtained:
[1] = test system: COLO 205; test: Antiproliferative activity against human COLO205 cells after 96 hrs by celltiter 96 assay; type: functional, cell-based; details: COLO 205, 96 h
[2] = biological target: T1, Histone deacetylase 1 (Homo sapiens, UniProt Q13547)
Description: Inhibition of full length recombinant HDAC1 using Fluor de Lys as substrate by fluorescence assay

[3] = test system: PC-3; test: Antiproliferative activity against human PC3 cells after 96 hrs by celltiter 96 assay; type: functional, cell-based; details: PC-3, 96 h
[4] = test system: A2780; test: Antiproliferative activity against human A2780 cells after 96 hrs by celltiter 96 assay; type: functional, cell-based; details: A2780, 96 h
[5] = test system: HCT-116; test: Antiproliferative activity against human HCT116 cells after 96 hrs by celltiter 96 assay; type: functional, cell-based; details: HCT-116, 96 h
[6] = Half life in human liver microsomes; type: ADME, Microsome
[7] = Half life in mouse liver microsomes; type: ADME, Microsome; details: liver microsomes
[8] = biological target: Histone deacetylase 9 (Homo sapiens, UniProt Q9UKV0)
Description: Competitive inhibition of HDAC9 using KI-104 as substrate by fluorescence assay

[9] = biological target: T2, Protein deacetylase HDAC6 (Homo sapiens, UniProt Q9UBN7)
T2 sequence (Q9UBN7 whole entry): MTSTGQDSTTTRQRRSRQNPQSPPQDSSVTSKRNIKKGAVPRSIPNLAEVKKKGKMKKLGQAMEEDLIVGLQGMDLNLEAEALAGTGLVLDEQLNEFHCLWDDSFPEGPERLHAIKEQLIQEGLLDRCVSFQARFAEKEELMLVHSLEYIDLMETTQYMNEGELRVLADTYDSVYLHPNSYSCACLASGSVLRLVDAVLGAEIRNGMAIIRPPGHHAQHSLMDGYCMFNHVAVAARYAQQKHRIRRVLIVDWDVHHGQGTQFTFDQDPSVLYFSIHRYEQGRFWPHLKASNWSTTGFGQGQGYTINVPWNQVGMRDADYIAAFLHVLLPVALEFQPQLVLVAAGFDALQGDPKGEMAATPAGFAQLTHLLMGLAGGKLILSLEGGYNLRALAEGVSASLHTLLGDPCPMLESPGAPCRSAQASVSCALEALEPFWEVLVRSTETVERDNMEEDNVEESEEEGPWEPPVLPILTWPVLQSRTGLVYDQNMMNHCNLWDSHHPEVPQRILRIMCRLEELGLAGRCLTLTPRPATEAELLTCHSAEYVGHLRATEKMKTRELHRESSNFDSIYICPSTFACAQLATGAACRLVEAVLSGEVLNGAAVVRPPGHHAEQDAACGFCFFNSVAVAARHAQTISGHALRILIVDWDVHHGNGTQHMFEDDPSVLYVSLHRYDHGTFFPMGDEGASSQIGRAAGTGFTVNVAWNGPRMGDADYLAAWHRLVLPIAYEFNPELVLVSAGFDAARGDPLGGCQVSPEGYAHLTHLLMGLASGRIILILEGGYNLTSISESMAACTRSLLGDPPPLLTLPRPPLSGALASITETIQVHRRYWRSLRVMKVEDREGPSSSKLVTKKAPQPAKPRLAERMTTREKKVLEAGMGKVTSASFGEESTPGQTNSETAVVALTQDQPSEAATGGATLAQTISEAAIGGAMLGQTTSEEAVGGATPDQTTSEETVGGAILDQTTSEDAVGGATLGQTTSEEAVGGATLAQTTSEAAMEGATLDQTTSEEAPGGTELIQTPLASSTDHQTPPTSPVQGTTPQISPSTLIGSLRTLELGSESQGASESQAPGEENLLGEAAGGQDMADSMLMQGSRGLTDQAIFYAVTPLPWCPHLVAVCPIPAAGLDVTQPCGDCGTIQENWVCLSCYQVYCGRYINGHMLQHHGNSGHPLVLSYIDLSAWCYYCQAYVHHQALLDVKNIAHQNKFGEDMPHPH
Description: Competitive inhibition of HDAC6 using KI-104 as substrate by fluorescence assay

[10] = biological target: T1, Histone deacetylase 1; remark: listed apart in the source
Description: Competitive inhibition of HDAC1 using KI-104 as substrate by fluorescence assay

[11] = biological target: T3, Histone deacetylase 11 (Homo sapiens, UniProt Q96DB2)
T3 sequence (Q96DB2 whole entry): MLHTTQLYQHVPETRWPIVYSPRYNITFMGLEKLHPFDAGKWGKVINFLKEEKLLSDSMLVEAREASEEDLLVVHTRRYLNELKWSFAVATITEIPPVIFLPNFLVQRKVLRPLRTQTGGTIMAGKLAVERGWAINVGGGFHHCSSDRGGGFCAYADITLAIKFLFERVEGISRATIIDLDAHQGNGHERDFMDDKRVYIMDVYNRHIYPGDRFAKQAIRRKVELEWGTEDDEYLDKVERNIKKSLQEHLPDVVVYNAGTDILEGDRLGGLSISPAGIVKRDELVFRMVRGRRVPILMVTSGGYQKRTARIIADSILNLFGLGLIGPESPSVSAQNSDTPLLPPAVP
Description: Competitive inhibition of HDAC11 using KI-104 as substrate by fluorescence assay

[12] = biological target: Histone deacetylase 5 (Homo sapiens, UniProt Q9UQL6)
Description: Competitive inhibition of HDAC5 using KI-104 as substrate by fluorescence assay

[13] = biological target: Histone deacetylase 4 (Homo sapiens, UniProt P56524)
Description: Competitive inhibition of HDAC4 using KI-104 as substrate by fluorescence assay

[14] = biological target: T4, Histone deacetylase 8 (Homo sapiens, UniProt Q9BY41)
T4 sequence (Q9BY41 whole entry): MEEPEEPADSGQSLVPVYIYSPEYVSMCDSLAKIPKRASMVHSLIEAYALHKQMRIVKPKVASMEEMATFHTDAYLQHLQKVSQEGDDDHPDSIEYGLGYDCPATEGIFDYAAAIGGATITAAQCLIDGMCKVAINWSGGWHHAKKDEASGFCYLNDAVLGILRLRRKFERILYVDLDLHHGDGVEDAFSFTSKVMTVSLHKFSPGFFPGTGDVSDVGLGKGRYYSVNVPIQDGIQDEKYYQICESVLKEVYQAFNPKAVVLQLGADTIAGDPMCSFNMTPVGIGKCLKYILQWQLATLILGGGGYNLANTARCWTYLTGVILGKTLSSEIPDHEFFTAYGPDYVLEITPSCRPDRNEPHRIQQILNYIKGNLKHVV
Description: Competitive inhibition of HDAC8 using KI-104 as substrate by fluorescence assay

[15] = biological target: Histone deacetylase 2 (Homo sapiens, UniProt Q92769)
Description: Competitive inhibition of HDAC2 using KI-104 as substrate by fluorescence assay

[16] = biological target: Histone deacetylase 3 (Homo sapiens, UniProt O15379)
Description: Competitive inhibition of HDAC3 using KI-104 as substrate by fluorescence assay

[17] = biological target: T5, Polyamine deacetylase HDAC10 (Homo sapiens, UniProt Q969S8)
T5 sequence (Q969S8 whole entry): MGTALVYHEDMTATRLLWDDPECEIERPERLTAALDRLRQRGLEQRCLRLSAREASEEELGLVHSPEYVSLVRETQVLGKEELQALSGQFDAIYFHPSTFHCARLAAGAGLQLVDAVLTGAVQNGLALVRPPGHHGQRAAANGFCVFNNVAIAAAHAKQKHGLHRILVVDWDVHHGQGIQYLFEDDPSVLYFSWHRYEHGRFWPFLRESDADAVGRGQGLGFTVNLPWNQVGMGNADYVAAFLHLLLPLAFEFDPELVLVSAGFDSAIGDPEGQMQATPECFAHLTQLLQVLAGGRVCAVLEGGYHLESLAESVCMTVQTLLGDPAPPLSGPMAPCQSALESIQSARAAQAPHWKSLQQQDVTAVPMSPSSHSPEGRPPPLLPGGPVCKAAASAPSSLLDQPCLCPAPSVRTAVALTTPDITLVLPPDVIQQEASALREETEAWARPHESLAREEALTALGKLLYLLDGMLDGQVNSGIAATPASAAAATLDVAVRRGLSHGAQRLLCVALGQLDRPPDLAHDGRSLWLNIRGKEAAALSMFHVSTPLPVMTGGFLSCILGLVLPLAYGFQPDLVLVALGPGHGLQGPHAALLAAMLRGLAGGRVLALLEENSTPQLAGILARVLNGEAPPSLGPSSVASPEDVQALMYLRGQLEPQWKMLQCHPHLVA
Description: Competitive inhibition of HDAC10 using KI-104 as substrate by fluorescence assay

T1 sequence (Q13547 whole entry): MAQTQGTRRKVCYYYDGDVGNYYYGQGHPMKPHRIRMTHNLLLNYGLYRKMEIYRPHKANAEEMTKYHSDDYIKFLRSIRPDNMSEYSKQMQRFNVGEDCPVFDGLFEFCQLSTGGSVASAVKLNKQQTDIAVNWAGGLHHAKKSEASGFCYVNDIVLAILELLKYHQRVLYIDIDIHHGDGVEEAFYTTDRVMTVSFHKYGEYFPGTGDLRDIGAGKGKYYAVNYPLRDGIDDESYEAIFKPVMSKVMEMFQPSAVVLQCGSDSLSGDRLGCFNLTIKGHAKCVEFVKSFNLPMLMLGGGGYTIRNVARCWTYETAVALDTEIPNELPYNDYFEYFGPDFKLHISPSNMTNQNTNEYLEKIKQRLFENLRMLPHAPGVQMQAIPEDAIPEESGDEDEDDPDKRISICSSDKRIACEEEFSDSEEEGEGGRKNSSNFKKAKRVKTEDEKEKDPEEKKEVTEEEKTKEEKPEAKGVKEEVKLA
Sequence of Histone deacetylase 5 (Q9UQL6 whole entry): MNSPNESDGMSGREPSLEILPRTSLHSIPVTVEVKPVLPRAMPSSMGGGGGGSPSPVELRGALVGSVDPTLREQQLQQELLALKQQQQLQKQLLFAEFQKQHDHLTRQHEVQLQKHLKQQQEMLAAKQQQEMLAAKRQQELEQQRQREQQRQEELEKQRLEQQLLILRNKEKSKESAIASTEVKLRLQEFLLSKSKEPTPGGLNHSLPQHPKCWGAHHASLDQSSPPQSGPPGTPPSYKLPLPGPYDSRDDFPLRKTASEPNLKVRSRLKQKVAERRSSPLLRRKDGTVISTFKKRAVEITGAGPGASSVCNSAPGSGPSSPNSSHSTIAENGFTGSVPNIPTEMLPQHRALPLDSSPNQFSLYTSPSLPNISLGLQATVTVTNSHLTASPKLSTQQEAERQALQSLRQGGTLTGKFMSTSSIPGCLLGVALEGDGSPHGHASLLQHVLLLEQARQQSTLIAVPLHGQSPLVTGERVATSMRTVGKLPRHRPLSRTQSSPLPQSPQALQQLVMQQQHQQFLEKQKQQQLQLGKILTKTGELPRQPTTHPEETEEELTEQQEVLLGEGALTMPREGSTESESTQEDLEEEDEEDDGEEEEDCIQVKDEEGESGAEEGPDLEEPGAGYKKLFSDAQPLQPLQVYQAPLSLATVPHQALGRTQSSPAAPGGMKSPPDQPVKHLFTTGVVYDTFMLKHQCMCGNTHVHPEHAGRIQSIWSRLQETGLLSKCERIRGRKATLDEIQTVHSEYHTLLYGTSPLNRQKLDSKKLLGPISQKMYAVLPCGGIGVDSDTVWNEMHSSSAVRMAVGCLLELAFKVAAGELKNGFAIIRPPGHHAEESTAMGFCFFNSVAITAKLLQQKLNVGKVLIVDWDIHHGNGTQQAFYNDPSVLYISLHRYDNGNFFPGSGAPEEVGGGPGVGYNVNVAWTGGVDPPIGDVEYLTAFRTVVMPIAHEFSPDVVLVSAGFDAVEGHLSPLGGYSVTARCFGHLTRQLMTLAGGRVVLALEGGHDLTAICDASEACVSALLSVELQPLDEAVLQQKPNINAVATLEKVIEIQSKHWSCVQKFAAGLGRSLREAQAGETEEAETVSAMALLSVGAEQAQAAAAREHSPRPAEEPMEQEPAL
Sequence of Histone deacetylase 4 (P56524 whole entry): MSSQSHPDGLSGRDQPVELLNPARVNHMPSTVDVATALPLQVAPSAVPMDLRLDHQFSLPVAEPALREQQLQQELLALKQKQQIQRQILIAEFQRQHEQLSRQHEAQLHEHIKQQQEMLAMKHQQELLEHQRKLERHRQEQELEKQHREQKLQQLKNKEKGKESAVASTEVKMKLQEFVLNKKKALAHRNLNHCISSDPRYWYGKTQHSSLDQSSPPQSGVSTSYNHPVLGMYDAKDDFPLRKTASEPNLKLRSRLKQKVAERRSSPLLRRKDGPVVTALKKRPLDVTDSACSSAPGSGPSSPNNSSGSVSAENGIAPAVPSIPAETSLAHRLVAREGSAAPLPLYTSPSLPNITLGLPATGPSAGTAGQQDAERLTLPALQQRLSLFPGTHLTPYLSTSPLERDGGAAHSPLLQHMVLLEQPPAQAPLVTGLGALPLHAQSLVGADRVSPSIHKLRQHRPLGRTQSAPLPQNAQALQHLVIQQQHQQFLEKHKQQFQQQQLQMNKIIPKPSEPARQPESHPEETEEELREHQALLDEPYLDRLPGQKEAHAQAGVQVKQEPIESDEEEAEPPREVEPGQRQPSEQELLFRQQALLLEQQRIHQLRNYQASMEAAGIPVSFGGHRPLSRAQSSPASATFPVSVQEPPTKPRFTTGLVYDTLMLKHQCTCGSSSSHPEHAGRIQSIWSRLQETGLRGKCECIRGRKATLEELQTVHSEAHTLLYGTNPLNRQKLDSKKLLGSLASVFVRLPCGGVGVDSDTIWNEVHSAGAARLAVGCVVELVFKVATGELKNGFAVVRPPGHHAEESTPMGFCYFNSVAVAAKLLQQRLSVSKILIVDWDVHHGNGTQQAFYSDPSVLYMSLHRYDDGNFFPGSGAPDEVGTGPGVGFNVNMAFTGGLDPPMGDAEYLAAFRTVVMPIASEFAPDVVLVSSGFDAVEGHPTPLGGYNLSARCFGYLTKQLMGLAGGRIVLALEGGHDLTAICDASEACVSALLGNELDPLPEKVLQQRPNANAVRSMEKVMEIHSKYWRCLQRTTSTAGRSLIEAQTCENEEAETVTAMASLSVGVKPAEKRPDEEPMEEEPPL
Sequence of Histone deacetylase 3 (O15379 whole entry): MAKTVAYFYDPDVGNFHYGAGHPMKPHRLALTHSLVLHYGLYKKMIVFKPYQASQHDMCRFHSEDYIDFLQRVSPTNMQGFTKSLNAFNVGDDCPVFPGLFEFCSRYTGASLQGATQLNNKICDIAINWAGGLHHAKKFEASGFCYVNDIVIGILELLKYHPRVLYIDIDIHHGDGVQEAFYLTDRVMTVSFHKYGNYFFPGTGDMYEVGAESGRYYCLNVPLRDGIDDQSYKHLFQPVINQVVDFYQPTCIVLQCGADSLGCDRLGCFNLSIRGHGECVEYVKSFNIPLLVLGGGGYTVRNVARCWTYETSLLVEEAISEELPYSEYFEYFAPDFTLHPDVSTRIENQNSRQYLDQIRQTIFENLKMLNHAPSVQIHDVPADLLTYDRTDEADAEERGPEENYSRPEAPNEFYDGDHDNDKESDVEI
Sequence of Histone deacetylase 9 (Q9UKV0 whole entry): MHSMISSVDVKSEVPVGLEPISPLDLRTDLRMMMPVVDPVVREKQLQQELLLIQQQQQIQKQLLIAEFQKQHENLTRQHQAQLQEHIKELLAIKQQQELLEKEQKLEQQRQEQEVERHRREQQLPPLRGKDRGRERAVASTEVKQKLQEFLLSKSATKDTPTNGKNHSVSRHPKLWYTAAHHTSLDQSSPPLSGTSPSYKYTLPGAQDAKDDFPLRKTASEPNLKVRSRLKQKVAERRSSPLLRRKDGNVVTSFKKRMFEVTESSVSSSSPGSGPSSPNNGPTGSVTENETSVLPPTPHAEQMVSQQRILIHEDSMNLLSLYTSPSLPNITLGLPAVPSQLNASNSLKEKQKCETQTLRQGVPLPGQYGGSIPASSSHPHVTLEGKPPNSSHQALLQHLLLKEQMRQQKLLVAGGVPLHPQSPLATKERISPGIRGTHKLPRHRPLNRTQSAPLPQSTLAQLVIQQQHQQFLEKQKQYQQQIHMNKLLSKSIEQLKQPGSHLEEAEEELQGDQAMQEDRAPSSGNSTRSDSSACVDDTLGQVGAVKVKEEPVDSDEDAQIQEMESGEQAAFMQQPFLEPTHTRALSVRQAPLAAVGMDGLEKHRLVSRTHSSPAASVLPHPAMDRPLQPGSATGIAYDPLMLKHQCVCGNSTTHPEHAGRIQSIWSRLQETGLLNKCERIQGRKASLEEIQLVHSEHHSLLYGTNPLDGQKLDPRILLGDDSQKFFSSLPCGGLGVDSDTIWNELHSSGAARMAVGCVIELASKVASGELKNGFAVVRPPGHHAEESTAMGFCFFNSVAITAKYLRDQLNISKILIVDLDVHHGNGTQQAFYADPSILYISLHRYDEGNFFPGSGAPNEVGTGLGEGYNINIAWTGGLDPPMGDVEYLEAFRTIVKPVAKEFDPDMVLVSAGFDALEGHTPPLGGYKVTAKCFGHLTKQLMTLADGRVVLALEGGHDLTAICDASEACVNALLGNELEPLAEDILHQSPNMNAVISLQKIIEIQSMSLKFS
Sequence of Histone deacetylase 2 (Q92769 whole entry): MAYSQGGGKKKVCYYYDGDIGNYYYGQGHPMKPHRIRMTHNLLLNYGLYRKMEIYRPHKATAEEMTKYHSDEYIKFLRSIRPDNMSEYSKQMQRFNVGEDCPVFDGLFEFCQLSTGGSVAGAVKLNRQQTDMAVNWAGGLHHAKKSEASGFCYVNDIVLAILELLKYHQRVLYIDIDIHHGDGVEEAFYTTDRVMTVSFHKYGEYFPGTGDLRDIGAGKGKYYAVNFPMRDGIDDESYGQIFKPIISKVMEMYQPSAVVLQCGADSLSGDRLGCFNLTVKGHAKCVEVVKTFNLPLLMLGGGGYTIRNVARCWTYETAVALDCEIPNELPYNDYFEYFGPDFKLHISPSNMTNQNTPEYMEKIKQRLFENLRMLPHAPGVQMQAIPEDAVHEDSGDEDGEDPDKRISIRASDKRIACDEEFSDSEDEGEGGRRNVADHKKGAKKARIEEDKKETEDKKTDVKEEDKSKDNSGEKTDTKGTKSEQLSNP

IC50 [1] [nM]	IC50 [2] [nM]	Compound	other results
150	37	CC(Cc1nc2cc(/C=C/C(=O)NO)ccc2n1CC(C)(C)CN(C)C)CC(C)(C)C (stereo not given)	IC50 [3]: 310 nM; IC50 [4]: 230 nM; IC50 [5]: 410 nM
450	41	CCCCCc1nc2cc(/C=C/C(=O)NO)ccc2n1CCN(C)CC	
		CCN(CC)CCn1c(CCc2ccccc2)nc2cc(/C=C/C(=O)NO)ccc21	half-life [6]: ≥ 30 min; half-life [7]: 5 min
230	15	CCCCCCCCc1nc2cc(/C=C/C(=O)NO)ccc2n1CCNC	
550	29	CCCCCCc1nc2cc(/C=C/C(=O)NO)ccc2n1CCNC	
630	169	CCN(CC)CCn1c(C2CC2c2ccccc2)nc2cc(/C=C/C(=O)NO)ccc21 (trans isomer)	
16400	110	CCCCc1nc2cc(/C=C/C(=O)NO)ccc2n1C1CCNC1 (stereo not given)	
2100	158	CCCCCc1nc2cc(/C=C/C(=O)NO)ccc2n1C1CCCN(C)C1 (stereo not given)	
420	45	CCCCCCc1nc2cc(/C=C/C(=O)NO)ccc2n1CCN(CC)CC	
980	155	CCCc1nc2cc(/C=C/C(=O)NO)ccc2n1CCN(CC)CC	
4870	190	CCCCc1nc2cc(/C=C/C(=O)NO)ccc2n1C1CCCNC1 (stereo not given)	
650	90	CCCCc1nc2cc(/C=C/C(=O)NO)ccc2n1CCN(C)C	
2690	175	CC(C)Cc1nc2cc(/C=C/C(=O)NO)ccc2n1CC(C)(C)CN(C)C	
1650		CCCCc1nc2cc(/C=C/C(=O)NO)ccc2n1CCN(C)CC	
6810	575	CCN(CC)CCc1nc2cc(/C=C/C(=O)NO)ccc2n1CCC(C)C	
690	175	CN(C)CCn1c(C2CC2c2ccccc2)nc2cc(/C=C/C(=O)NO)ccc21 (stereo not given)	
620	53	CC/C=C\CCc1nc2cc(/C=C/C(=O)NO)ccc2n1CC(C)(C)CN(C)C	IC50 [3]: 380 nM; IC50 [4]: 370 nM; IC50 [5]: 920 nM
7000		CCCCc1nc2cc(/C=C/C(=O)NO)ccc2n1C1CCNCC1	
950	41	CCCCCc1nc2cc(/C=C/C(=O)NO)ccc2n1CCNC	

IC50 [1] [nM]	IC50 [2] [nM]	Compound	other results
310	21	CC/C=C\CCc1nc2cc(/C=C/C(=O)NO)ccc2n1CCNCC	Ki [8]: 5.7 nM; IC50 [3]: 160 nM; Ki [9]: 4 nM; Ki [10]: 7.7 nM; IC50 [4]: 200 nM; Ki [11]: 8.8 nM; Ki [12]: 3.1 nM; Ki [13]: 2.4 nM; Ki [14]: 55 nM; Ki [15]: 8.6 nM; IC50 [5]: 660 nM; Ki [16]: 16 nM; Ki [17]: 18 nM
540	45	CCCCc1nc2cc(/C=C/C(=O)NO)ccc2n1CCN(C)C(C)C	
1870	335	CCCCc1nc2cc(/C=C/C(=O)NO)ccc2n1CCN(C(C)C)C(C)C	
140	23	CCNCCn1c(CC(C)CC(C)(C)C)nc2cc(/C=C/C(=O)NO)ccc21 (stereo not given)	IC50 [3]: 100 nM; IC50 [4]: 140 nM; IC50 [5]: 270 nM
2890	165	CCCCc1nc2cc(/C=C/C(=O)NO)ccc2n1CCCNC(C)C	
1190	135	CCN(CC)CCn1c(CC(C)(C)C)nc2cc(/C=C/C(=O)NO)ccc21	
4530	84	NCCn1c(C2CC2c2ccccc2)nc2cc(/C=C/C(=O)NO)ccc21 (stereo not given)	
6020	2490	CCCCc1nc2cc(/C=C/C(=O)NO)ccc2n1CCC(C)C	
390	32	CCN(CC)CCn1c(CC2CC3CCC2C3)nc2cc(/C=C/C(=O)NO)ccc21 (stereo not given)	IC50 [3]: 530 nM; IC50 [4]: 210 nM; IC50 [5]: 330 nM
1460	41	CCCCCCc1nc2cc(/C=C/C(=O)NO)ccc2n1C1CCNC1 (stereo not given)	
1730	308	CC(C)c1nc2cc(/C=C/C(=O)NO)ccc2n1CC(C)(C)CN(C)C	
1090	125	CCCCc1nc2cc(/C=C/C(=O)NO)ccc2n1C1CCN(C)C1 (stereo not given)	
540	22	CCCCCCCCc1nc2cc(/C=C/C(=O)NO)ccc2n1CCN	
2230	150	CCCCc1nc2cc(/C=C/C(=O)NO)ccc2n1CC(C)(C)CN(C)C	
880	77	CCCCc1nc2cc(/C=C/C(=O)NO)ccc2n1CCNCC	IC50 [3]: 380 nM; IC50 [4]: 760 nM; IC50 [5]: 1110 nM
810	92	CCN(CC)CCn1c(CC(C)C)nc2cc(/C=C/C(=O)NO)ccc21	IC50 [3]: 950 nM; IC50 [4]: 1240 nM; IC50 [5]: 1300 nM
420	27	CCCCCc1nc2cc(/C=C/C(=O)NO)ccc2n1CCNCC	
2450	421	CN(C)CC(C)(C)Cn1c(C2CCCCC2)nc2cc(/C=C/C(=O)NO)ccc21	
1340	105	CCCCCCc1nc2cc(/C=C/C(=O)NO)ccc2n1C1CCCNC1 (stereo not given)	
